The values that follow come from publication PMC6321230, “Metabolic Stability and Metabolite Characterization of Capilliposide B and Capilliposide C by LC–QTRAP–MS/MS” (Pharmaceutics, 2018).

In one data set the test system is prostate cancer PC3. Further details: method as in PMID 16595968, PMID 24554216. Conditions: cited from earlier work.
The test system of a further data set is DU145 cells. Further details: method as in PMID 16595968, PMID 24554216. Conditions: cited from earlier work.
The nature of data set [1]: Metabolic stability in mouse liver microsomes. The conditions noted are these: for in vitro t1/2 in mouse liver microsomes: MLM 0.5 mg/mL, NADPH, 37 °C, substrate 1.0 μM (midazolam 0.5 μM).
For the next data set, the system named is ovarian carcinoma A-2780. On the set-up: method as in PMID 16595968, PMID 24554216. The conditions noted are these: cited from earlier work.
For data set [2] the following is noted: mouse, microsomes.
On the set-up of data set [3]: method as in PMID 24313264. The conditions noted are these: oral administration; cited from earlier work.
Details of data set [4]: method as in PMID 26678180. The conditions noted are these: cited from earlier work.
Data set [5] concerns esophageal squamous carcinoma cells. On the set-up: method as in PMID 28463955. Conditions: cotreatment of LC-C and oxaliplatin; cited from earlier work.
On the set-up of data set [6]: method as in PMID 27521984. Conditions: intravenous administration; cited from earlier work.
A short description of data set [7]: Metabolic stability in human liver microsomes. The conditions noted are these: pH 7.4.
The nature of data set [8]: Metabolic stability in rat liver microsomes. Conditions: pH 7.4.
A further data set deals with HepG2 cells. On the set-up: method as in PMID 26678180. The conditions noted are these: cited from earlier work.
Details of data set [9]: method as in PMID 27859436. Conditions: mouse, after intravenous dosing of LC-B; cited from earlier work.

For `CC1(C)C[C@H](O[C@@H]2O[C@H](CO)[C@@H](O)[C@H](O)[C@H]2O)[C@@]23[C@H](O)C[C@]4(C)[C@@](CC[C@@H]5[C@@]6(C)CC[C@H](O[C@@H]7OC[C@H](O[C@@H]8O[C@H](CO)[C@@H](O)[C@H](O)[C@H]8O[C@@H]8OC[C@@H](O)[C@H](O)[C@H]8O)[C@H](O)[C@H]7O[C@@H]7O[C@H](CO)[C@@H](O)[C@H](O)[C@H]7O)C(C)(C)[C@@H]6CC[C@]54C)(O[C@@H]2O)[C@@H]3C1` [LC-C, Capilliposide C], the “cytotoxicity against PC3” value with prostate cancer PC3 is “significant cytotoxicities”. Moreover, the “cytotoxicity against DU145” value in the data set with DU145 cells is “significant cytotoxicities”. Moreover, the “in vitro t1/2 in mouse liver microsomes” value in data set [1] was 63.0 min. In addition, the “cytotoxicity against A-2780” value in the data set with ovarian carcinoma A-2780 is “significant cytotoxicities”. For the same compound, in data set [2], the “degradation in MLM regardless of the presence of NADPH” value is on record as “obvious degradation” and the “degradation in MLM with esterase inhibitor dichlorvos” value is “remarkably inhibited”. Further, in data set [3], the bioavailability result was “poor bioavailability” and the exposure in tissues result is reported as “low exposure in tissues”. In addition, the “fraction metabolized in intestinal microflora” value in data set [4] was 92.7%. For the same compound, the “chemosensitizing effect of cotreatment with oxaliplatin” value in data set [5] is on record as “chemosenstizing effect”.
As to `CCCCCC(=O)O[C@H]1CC(C)(C)C[C@@H]2[C@@]13[C@H](O)C[C@]1(C)[C@@]2(CC[C@@H]2[C@@]4(C)CC[C@H](O[C@@H]5OC[C@H](O[C@@H]6O[C@H](CO)[C@@H](O)[C@H](O)[C@H]6O[C@@H]6OC[C@@H](O)[C@H](O)[C@H]6O)[C@H](O)[C@H]5O[C@@H]5O[C@H](CO)[C@@H](O)[C@H](O)[C@H]5O)C(C)(C)[C@@H]4CC[C@]21C)O[C@H]3O` [LC-B, Capilliposide B], in the data set with prostate cancer PC3, the “cytotoxicity against PC3” value is reported as “significant cytotoxicities”. Besides, in the data set on DU145 cells, the “cytotoxicity against DU145” value is reported as “significant cytotoxicities”. In data set [1], the “in vitro t1/2 in mouse liver microsomes” value turned out to be 27.7 min. Further, the “cytotoxicity against A-2780” value in the data set with ovarian carcinoma A-2780 is “significant cytotoxicities”. Moreover, the “recovery in rat excreta” value in data set [6] is recorded as “less than 10%”. In data set [2], the “degradation in MLM regardless of the presence of NADPH” value is “obvious degradation” and the “degradation in MLM with esterase inhibitor dichlorvos” value is “remarkably inhibited”. Moreover, in data set [3], the bioavailability result was “poor bioavailability” and the exposure in tissues entry is given as “low exposure in tissues”.
On to `Cc1ncc2n1-c1ccc(Cl)cc1C(c1ccccc1F)=NC2` [midazolam, Midazolam], for which the half-life at 0.5 μM was found to be 3.85 min in [1] (mouse, microsomes, pH 7.4); 3.73 min in data set [7]; 2.35 min in data set [8].
Consider `CC1(C)C[C@@H]2[C@@]3([C@H](O)C[C@]4(C)[C@@]2(CC[C@@H]2[C@@]5(C)CC[C@H](O[C@@H]6OC[C@H](O[C@@H]7O[C@H](CO)[C@@H](O)[C@H](O)[C@H]7O[C@@H]7OC[C@@H](O)[C@H](O)[C@H]7O)[C@H](O)[C@H]6O[C@@H]6O[C@H](CO)[C@@H](O)[C@H](O)[C@H]6O)C(C)(C)[C@@H]5CC[C@]24C)O[C@@H]3O)[C@@H](O)C1` [LC-A, Capilliposide A], for which, in the data set with HepG2 cells, the “cytotoxicity against HepG2 cells” value is recorded as “significant cytotoxicity”. In addition, in data set [9], the “main site of tissue distribution” value was “mainly distributed in mouse liver”.
